Measurements reported in patent US10017453B2, “Pharmaceutically acceptable salts of fatty acids” (Dignity Sciences Limited, priority 2013, dated 2018).
≈ marks a conversion by molar mass, not a printed value.

What was measured:
[1] = ambient temperature; probably due to uptake of moisture
[2] = 8 Day Stability 40/75% RH of solids from the salt/cocrystal screen; assay type: physicochemical; conditions: 8 days
[3] = Chemical stability at ambient temperature under vacuum for 8 days; assay type: physicochemical
From the text: Twenty four co-formers and acids were used to screen for stable forms of 15-HETrE but most yielded oils or gels. Salts with improved handling properties were isolated from the screen: sodium, ornithine, lysine, meglumine and piperazine, but all were poorly crystalline.
Properties of 15-HETrE salts prepared according to Examples 4-7 were compared against each other and against 15-HETrE free acid API.

[4] = Dynamic vapor sorption (DVS) analysis; assay type: physicochemical; conditions: for Hygroscopicity according to the European Pharmacopeia classification: DVS
From the text: Post DVS XRPD analysis was not conducted as the material deliquesced.

[5] = Storage stability up to 24 weeks, free acid versus lysine salt (FIG. 28); assay type: physicochemical
Procedure: The 15-HETrE-lysine salt is stable at 20° C. and 40% humidity as well as at 40° C. and 75% humidity, making the lysine salt useful for pharmaceutical applications. 15-HETrE lysine salt was prepared on a larger scale for the crystallization screen as a white powder.

[6] = Qualitative solubility observations of the salts; assay type: physicochemical
Procedure: An alternative method to prepare 15-HETrE sodium salt by slurrying and avoid need for rotary evaporation could not be found. […] Scale up and characterization was completed for 15-HETrE sodium salt using rotary evaporation from 10% aqueous EtOH, then EtOH. […] Purity as measured by UPLC analysis was ˜81%.
Products of each of the Reactions were white in appearance. Filtration was carried out with a sintered funnel (no. 3, 10 mm diameter) under mild vacuum. Some filter cake products were yellow in appearance. The first ˜200 μL of filtrate were transferred into an HPLC vial. Filtration of the remaining reaction mixture (alternating between high and medium vacuum) yielded a filter cake that was transferred to a vacuum chamber and dried overnight before being stored in a freezer.

[7] = Solvent-induced degradation of 15-(S)-HETrE lysine salt (ethyl acetate or methanol, overnight, UPLC); assay type: physicochemical
Procedure: An experiment to determine the degradation of 15-(S)-HETrE lysine salt, if any, when contacted with ethyl acetate or methanol. 15-(S)-HETrE lysine salt (100 mg) was dissolved in solvent (1 mL) and stirred overnight.

[8] = Reslurry of 15-(S)-HETrE lysine salt in ethyl acetate (impurity profile, NMR ratio); assay type: physicochemical
Procedure: An experiment was conducted to determine if the ratio of 15-(S)-HETrE to lysine would change after exposure to ethyl acetate. 15-(S)-HETrE lysine salt (100 mg) was suspended in HPLC grade ethyl acetate (1 mL) and stirred vigorously overnight at room temperature. The suspension was then filtered as described in previous examples. The impurity profiles of the starting 15-(S)-HETrE lysine salt (“before slurry”) and the slurried, filtered salt (“after reslurry”) are shown in Table 25.
NMR spectroscopy confirmed no change in the ratio of 15-(S)-HETrE-to-lysine ratio.

[9] = Solubility screen of as-received 15-HETrE (aliquot addition method); assay type: physicochemical; conditions: for solubility: organic solvent or mixture, estimated, read-out: Solubility Range
From the text: This is believed to be due to degradation of 15-HETrE, therefore HFIPA was not used in any further studies of 15-HETrE.

[10] = Degradation of 15-(S)-HETrE on exposure to isopropyl acetate (overnight, UPLC); assay type: physicochemical
Procedure: An experiment was conducted to examine whether any degradation would be observed upon exposure of 15-(S)-HETrE to isopropyl acetate. 15-(S)-HETrE (100 mg) was dissolved in isopropyl acetate (1 mL) and stirred overnight. This was sampled directly for UPLC analysis (Table 39).

[11] = in ethyl acetate, stirred overnight
[12] = original salt, before solvent contact
[13] = after reslurry in ethyl acetate, overnight, room temperature
[14] = before exposure to isopropyl acetate
[15] = in isopropyl acetate, stirred overnight

## C1CNCCN1.CCCCCC(O)/C=C/C=C\C/C=C\CCCCCCC(=O)O (stereo not shown) [15-HETrE piperazine salt, 15-Hydroxy-eicosa-8(Z),11(Z),13(E)-trienoic acid piperazine salt]
[1]
  Behaviour on exposure to air: appears to flow on exposure to air at ambient temperature

## CCCCCC(O)/C=C/C=C\C/C=C\CCCCCCC(=O)O.NCCCC[C@H](N)C(=O)O (stereo not shown) [15-HETrE lysine salt, 15-Hydroxy-eicosa-8(Z),11(Z),13(E)-trienoic acid lysine salt]
[2]
  8 Day Stability 40/75% RH: 97% purity
[3]
  Chemical stability: chemically stable
[4]
  Hygroscopicity according to the European Pharmacopeia classification: hygroscopic
[4]; above 80% RH
  DVS behaviour: deliquesced
[4]; below 70% RH
  DVS weight gain: less than 1%
[4]; between 70-80% RH
  DVS additional weight gain: 1%
[5]; 20° C. and 40% humidity
  Storage stability: stable
[5]; 40° C. and 75% humidity
  Storage stability: stable
[6]; DMSO
  solubility: insoluble
[6]; chloroform
  solubility: insoluble
[6]; water
  solubility: dissolves readily
[7]; [11]
  HETrE (RRT 1) peak area: 94.20%
  IMP 1 (RRT 0.62) peak area: 0.05%
  IMP 2 (RRT 0.64) peak area: 0.86%
  IMP 3 (RRT 0.69) peak area: 0.96%
  IMP 4 (RRT 0.91) peak area: 1.30%
  IMP 5 (RRT 1.03) peak area: 0.29%
  IMP 6 (RRT 1.1) peak area: 1.35%
  IMP 7 (RRT 1.75) peak area: 0.14%
[7]; in methanol, stirred overnight
  HETrE (RRT 1) peak area: 95.40%
  IMP 1 (RRT 0.62) peak area: 0.03%
  IMP 2 (RRT 0.64) peak area: 0.24%
  IMP 3 (RRT 0.69) peak area: 0.45%
  IMP 4 (RRT 0.91) peak area: 1.16%
  IMP 5 (RRT 1.03) peak area: 0.13%
  IMP 6 (RRT 1.1) peak area: 1.34%
  IMP 7 (RRT 1.75) peak area: 0.31%
[7]; [12]
  HETrE (RRT 1) peak area: 95.67%
  IMP 1 (RRT 0.62) peak area: 0.20%
  IMP 2 (RRT 0.64) peak area: 0.12%
  IMP 3 (RRT 0.69) peak area: 0.27%
  IMP 4 (RRT 0.91) peak area: 1.30%
  IMP 5 (RRT 1.03) peak area: 0%
  IMP 6 (RRT 1.1) peak area: 1.44%
  IMP 7 (RRT 1.75) peak area: 0.55%
[8]; [13]
  HETrE (RRT 1) in impurity profile: 95.69
  IMP 1 (RRT 0.62) in impurity profile: 0.16
  IMP 2 (RRT 0.64) in impurity profile: 0.39
  IMP 3 (RRT 0.69) in impurity profile: 0.16
  IMP 4 (RRT 0.91) in impurity profile: 1.08
  IMP 5 (RRT 1.03) in impurity profile: 0.07
  IMP 6 (RRT 1.1) in impurity profile: 1.47
  IMP 7 (RRT 1.75) in impurity profile: 0.11
[8]; before reslurry
  HETrE (RRT 1) in impurity profile: 96.66
  IMP 1 (RRT 0.62) in impurity profile: 0.04
  IMP 2 (RRT 0.64) in impurity profile: 0.09
  IMP 3 (RRT 0.69) in impurity profile: 0.11
  IMP 4 (RRT 0.91) in impurity profile: 1.01
  IMP 5 (RRT 1.03) in impurity profile: 0.15
  IMP 6 (RRT 1.1) in impurity profile: 1.39
  IMP 7 (RRT 1.75) in impurity profile: 0.26
[8]; ethyl acetate, overnight, room temperature, NMR
  Change in 15-(S)-HETrE-to-lysine ratio after reslurry: no change

## CCCCCC(O)/C=C/C=C\C/C=C\CCCCCCC(=O)[O-].[Na+] (stereo not shown) [15-HETrE sodium salt, 15-Hydroxy-eicosa-8(Z),11(Z),13(E)-trienoic acid sodium salt]
[2]
  8 Day Stability 40/75% RH: 95% purity
[4]
  Hygroscopicity according to the European Pharmacopeia classification: very hygroscopic
[4]; below 40% RH
  DVS weight gain: less than 1%
[4]; high RH
  DVS behaviour: deliquesced
[6]; water used in the slurry preparation, salt did not precipitate
  solubility: highly soluble

## CCCCCC(O)/C=C/C=C\C/C=C\CCCCCCC(=O)O (stereo not shown) [15-HETrE, 15-Hydroxy-eicosa-8(Z),11(Z),13(E)-trienoic acid]
[9]; 1,1,1,3,3,3-hexafluoroisopropyl acrylate (HFIPA), believed to be degradation
  Stability when combined with HFIPA: rapid color change from clear, colorless to blood red to deep purple/black
[9]; Acetone
  solubility: 3.12 to 9.36 mg/mL (≈ 9.67 to 29 mM)
[9]; Acetonitrile (ACN)
  solubility: 0.93 to 2.78 mg/mL (≈ 2.88 to 8.62 mM)
[9]; DCM
  solubility: 1.17 to 3.52 mg/mL (≈ 3.63 to 10.9 mM)
[9]; DMF
  solubility: 1.23 to 3.68 mg/mL (≈ 3.81 to 11.4 mM)
[9]; Dioxane
  solubility: 1.66 to 4.98 mg/mL (≈ 5.15 to 15.4 mM)
[9]; Ethanol (EtOH)
  solubility: 1.26 to 3.78 mg/mL (≈ 3.91 to 11.7 mM)
[9]; Ethyl acetate (EtOAc)
  solubility: 1.89 to 5.66 mg/mL (≈ 5.86 to 17.6 mM)
[9]; Methanol (MeOH)
  solubility: 2.12 to 6.36 mg/mL (≈ 6.57 to 19.7 mM)
[9]; THF
  solubility: 3.32 to 9.96 mg/mL (≈ 10.3 to 30.9 mM)
[9]; ten solvents tested
  Miscibility in solvents: miscible in all solvents tested
[5]; stored up to 24 weeks at −20° C., 2-8° C., 25° C.
  Storage stability: unstable and degrades at all conditions with the exception of −20 °C
[10]; [14]
  HETrE (RRT 1) peak area: 91.38%
  IMP 1 (RRT 0.62) peak area: 0.12%
  IMP 2 (RRT 0.64) peak area: 0.51%
  IMP 3 (RRT 0.66) peak area: 0.89%
  IMP 4 (RRT 0.69) peak area: 0.13%
  IMP 5 (RRT 0.72) peak area: 1.29%
  IMP 6 (RRT 0.85) peak area: 0.16%
  IMP 7 (RRT 0.91) peak area: 1.17%
  IMP 8 (RRT 0.98) peak area: 0.29%
  IMP 9 (RRT 1.03) peak area: 0.18%
  IMP 10 (RRT 1.1) peak area: 1.41%
  IMP 11 (RRT 1.75) peak area: 0.88%
[10]; [15]
  HETrE (RRT 1) peak area: 85.56%
  IMP 1 (RRT 0.62) peak area: 0.22%
  IMP 2 (RRT 0.64) peak area: 1.48%
  IMP 3 (RRT 0.66) peak area: 1.47%
  IMP 4 (RRT 0.69) peak area: 0.19%
  IMP 5 (RRT 0.72) peak area: 3.02%
  IMP 6 (RRT 0.85) peak area: 0.43%
  IMP 7 (RRT 0.91) peak area: 1.56%
  IMP 8 (RRT 0.98) peak area: 0.62%
  IMP 9 (RRT 1.03) peak area: 0.28%
  IMP 10 (RRT 1.1) peak area: 1.79%
  IMP 11 (RRT 1.75) peak area: 1.14%
